# Reference: patent US7195756B2, “Control of arthropod vectors of parasitic diseases” (Centers for Disease Control and Prevention, priority 2000, dated 2007)
# What was measured:
# Borrelia burgdorferi = experiment: Field trial Mason's Island: spirochete infection of white-footed mice (ear biopsy culture); assay type: in vivo
# Experimental: (§1) A field trial was conducted from April to September, 1999 on Mason's Island, Mystic, Conn. […] Four sites situated in undeveloped natural areas were used as untreated controls.
# (§2) Modified Protecta Jr. (Bell Laboratories, Madison, Wis.) mouse bait boxes (FIG. 2) were used in this study. The modifications were as follows: a cotton yarn wick was stapled to the underside of the lid just in front of the feeding area entry; two adsorbent nylon strips were affixed to the outer edges of the food block trays. Two Detex monitoring blocks (Bell Laboratories, Madison, Wis.) were placed in each box, 2–3 ml of fipronil topical formulation was applied to the wick and adsorbent strips with a squirt bottle, and the lid was closed and locked with a set screw prior to placement on properties. A 0.43% w/w formulation of fipronil was used in May and June and this was replaced by a 1% w/w formulation from July through September.
# (§3) White-footed mice were live-trapped using 3″×3″×10″ Sherman mouse traps (Sherman Trap Co., Tallahassee, Fla.). Pre-treatment trapping was conducted in April and May and post-treatment trapping from June through September to determine: 1) distribution of mice on individual properties, 2) tick burdens on animals, and 3) spirochete infection rates in mice between treated and untreated plots. Each mouse was anesthetized, ectoparasites were removed, ear tissue was collected for spirochete culture, mice were then bled, weighed, measured, ear-tagged and released at the point of capture. In July and August cloth drags were used to collect host-seeking larval ticks for comparison with results of host-associated tick data.
# (§4) Based upon pre-treatment mouse distribution and abundance data, a total of 125 bait boxes were set out on 13 residences. Boxes were spaced approximately 30 feet apart along the interface with maintained landscaping and wood lot or scrub brush. The number of boxes/property ranged from 4 to 20, depending on property size and presence of suitable mouse habitat. Initial treatment with fipronil began on May 17 and at approximate 4-week intervals each box was re-baited with 2 food blocks and the wick and strips were replenished with 2–3 ml of fipronil formulation. A record of relative use by white-footed mice was kept for each box during the trial.
# 3) Impact of fipronil on the natural transmission cycle of B. burgdorferi—Individual captured mice were tested for infection with B. burgdorferi by culture of ear biopsy tissue in BSK H growth media.
# Ixodes scapularis = experiment: Field trial Mason's Island: tick burdens on white-footed mice, fipronil-treated bait boxes; assay type: in vivo; details: for mean number of larvae/mouse: treated area
# Experimental: as §1, §2, §3, §4
# [1] = test system: nymphal Ixodes scapularis; experiment: Fipronil bioassay: treated laboratory mice challenged with nymphal ticks; assay type: in vivo; details: for % of nymphs fed to repletion: 20 μl single topical application
# Experimental: Fipronil Bioassay: To better determine the most efficacious concentration of fipronil active ingredient for use in the bait box method of tick control, a trial was conducted using treated and untreated laboratory mice challenged with nymphal Ixodes scapularis. Individual groups of 5 mice were treated with 20 microliters (one drop) of 1%, 0.75%, 0.5% and 0.43% of fipronil topical oil formulation micropipetted between the scapulae. Five mice were used as untreated controls. Individual mice were challenged with 10 nymphs each on days 14, 28 and 42. During tick challenge mice were held over water in a triple barrier/cage system. Ticks that fed to repletion were collected from the water and used as a measurement for acaricidal activity.
# 4) Fipronil bioassay—A total of 25 mice and 750 nymphal I. scapularis were used in this laboratory trial. The volume of 20 microliters (one average-sized drop) was considered the smallest amount of liquid acaricide that a mouse would apply to itself on a single visit to a bait box.
# I. spinipalpis = experiment: Field trial Larimer County, Colorado: ticks on Neotoma mexicana, treated bait boxes; assay type: in vivo, Ixodes spinipalpis; parameters: I. spinipalpis control level: concentration or dose not given beside the values; details: for I. spinipalpis control level: tick burdens treated vs untreated rats, FRONT LINE TOP SPOT
# Experimental: A field trial testing fipronil (FRONT LINE TOP SPOT®) on native rodent-associated ticks was conducted in a Rocky Mountains foothills habitat in Larimer County, Colo. Treated and untreated plots consisted of 35 rat dens within 5 hectares each. A mark-release-capture study with Neotoma mexicana began in April, and captured rats were anesthetized and ticks removed, identified and quantified. The principal tick on N. mexicana is I. spinipalpis, a nidicolous, competent vector in enzootic transmission cycles in Colorado, California and Oregon. […] Fipronil was passively applied to rats as they entered and exited modified commercially available bait boxes as described in Example 1. Treated bait boxes were set out in May, left in place, and retreated and rebaited at four-week intervals through August. Collections were made at 1, 4, 8, 12 and 16 weeks post-application. N. mexicana collected in the untreated control area numbered 92 with 150 total captures resulting in 1273 fleas and ticks. In the fipronil area, 110 individual rats were collected with a total of 179 captures resulting in 416 fleas and ticks.
# [2] = recaptured adult white-footed mice following fipronil treatment, chi-square p = 0.01
compound,measurement,setting,value
"N#Cc1nn(-c2c(Cl)cc(C(F)(F)F)cc2Cl)c(N)c1[S+]([O-])C(F)(F)F (stereo not drawn) [Fipronil, 5-amino-3-cyano-1-(2,6-dichloro-4-trifluoromethylphenyl)-4-trifluoromethylsulfinylpyrazole]",% of spirochete-infected mice,"Borrelia burgdorferi; Peromyscus leucopus, fipronil area, 164 mice, April-September 1999 (untreated 69%)",38%
same,% of properties with infected mice,"Borrelia burgdorferi; fipronil area, 12/13 properties (untreated 100%)",92%
same,young mice that became infected,"Borrelia burgdorferi; post-treatment period, 26 young mice (body mass <17 g), fipronil area (untreated 30% of 26)",none
same,"No. of mice + at first capture, remained +",Borrelia burgdorferi; recaptured adult white-footed mice following fipronil treatment,18
same,"No. of mice − at first capture, became +",Borrelia burgdorferi; [2],4
same,"No. of mice − at first capture, remained −",Borrelia burgdorferi; [2],14
same,treated properties with host-seeking larvae present (cloth drags),"Ixodes scapularis; July and August, seven of 13 treated properties",54%
same,larvae on treated mice,"Ixodes scapularis; course of the study, except one engorged larva in August and one larva in September",not present
same,mean number of larvae/mouse,Ixodes scapularis; August (untreated 9.1),0.03
same,mean number of larvae/mouse,Ixodes scapularis; July (untreated 4.5),0
same,live nymphs on mice after fipronil treatment,"Ixodes scapularis; white-footed mice, fipronil-treated area, post-treatment June-September, bait boxes 0.43% then 1% w/w",not found
same,% of nymphs fed to repletion,"[1]; 0.43% (85 μg/mouse), 14 days",0%
same,% of nymphs fed to repletion,"[1]; 0.43% (85 μg/mouse), 28 days",16%
same,% of nymphs fed to repletion,"[1]; 0.43% (85 μg/mouse), 42 days",30%
same,% of nymphs fed to repletion,"[1]; 0.50% (100 μg/mouse), 14 days",0%
same,% of nymphs fed to repletion,"[1]; 0.50% (100 μg/mouse), 28 days",8%
same,% of nymphs fed to repletion,"[1]; 0.50% (100 μg/mouse), 42 days",24%
same,% of nymphs fed to repletion,"[1]; 1.00% (200 μg/mouse), 14 days",0%
same,% of nymphs fed to repletion,"[1]; 1.00% (200 μg/mouse), 28 days",0%
same,% of nymphs fed to repletion,"[1]; 1.00% (200 μg/mouse), 42 days",2%
same,optimum concentration of fipronil to kill ticks on mice for 30 days after a single exposure,[1]; 20 microliters (=150 micrograms),0.75%
same,fleas and ticks collected,"I. spinipalpis; fipronil area, 110 rats, 179 captures (untreated: 1273 from 150 captures)",416
same,I. spinipalpis control level,I. spinipalpis; week 1 post-application,25%
same,I. spinipalpis control level,I. spinipalpis; week 4 post-application,90%
same,I. spinipalpis control level,I. spinipalpis; week 8 post-application,75%
same,I. spinipalpis control level,I. spinipalpis; week 12 post-application,97%
same,I. spinipalpis control level,I. spinipalpis; week 16 post-application,93%
